# Data published in US20080125432A1 (Devgen NV, priority 2004, published 2008).
# Experiments:
# Kv1.5 potassium channel = target: T1, Kv1.5 potassium channel (Homo sapiens, UniProt P22460); experiment: Patch clamp, CHO cells stably expressing the Kv1.5 potassium channel; format: cell-based; conditions: Kv1.5 mediated current
# T1 construct: expressed in transfected cells
# Description: The cDNA coding for Kv1.5 (GenBank Acc. No. M55513) was cloned into the pcDNA6-vector (Invitrogen, Leek, Netherlands). A C-terminal epitope-tag was introduced via PCR. The plasmid was sequenced and subsequently introduced into cells. Clonal cell lines stably expressing the Kv1.5 channel were established. Expression of protein was analyzed by means of immunofluorescence using antibodies directed against the epitope-tag. The functional expression of the ion channels was validated electrophysiologically.
# The experiments were performed using CHO cells stably expressing the Kv1.5 potassium channel.
# From a HP of −60 mV cells were hyperpolarised for 100 ms to […], followed by a 500 ms depolarisation to +50 mV. The current amplitude at the end of the test pulse to +50 mV was used for the analysis. Pulse cycling rate was 10 s (0.1 Hz).
# The application protocol of test compounds is depicted in FIG. 7. The first 14 stimuli were required to achieve steady state of the current amplitude. Unspecific current reduction was calculated and served for correcting procedures during data analysis. After the 14th stimulus the test compound application was started (indicated by an arrow) via teflon and silicone tubings and was assumed to reach the cell after 6 additional stimuli. The perfusion is adjusted by using a defined drop rate of 10 drops per 10-12 s. Up to three concentrations were applied successively to one cell followed by a wash period of 5 minutes. Total number of stimuli was 140. Effect of the test compound was analysed between stimulus nos. 21 and 50 (5 min., long dashed line) for the first concentration, between stimulus nos. 51 and 80 (5 min., short dashed line) for an additional 5 minutes. If the cell was still stable, a wash was added afterwards. Start of test compound application at the given concentration is indicated by arrows. Number of stimuli of each single episode are shown in the protocol of FIG. 7.
# The effects of the compounds were investigated at one concentration (2 μM or 1 μM) on the Kv1.5-mediated potassium channel. For comparison, the vehicle control experiments on the Kv1.5 mediated potassium channel. Results are presented in 9Table 9
# human Kv4.3 = target: T2, human Kv4.3 (Homo sapiens, UniProt Q9UK17); experiment: C. elegans based high-throughput screen for Kv4.3 modulators (pharynx pumping, Calcein AM uptake), transgenic strain UG1755; format: in vivo; conditions: for Ratio N2/Kv4.3: EC50 on N2 divided by EC50 on the Kv4.3 expressing strain, cut-off 1.8; for EC50: transgenic strain UG1755 expressing human Kv4.3, read-out: EC50 (μM) Kv4.3 worm
# T2 construct: expressed in transfected cells; host or cells: transgenic C. elegans strain UG1755 (N2 injected with plasmid pGV8, integrated array)
# T2 sequence (Q9UK17 1-655): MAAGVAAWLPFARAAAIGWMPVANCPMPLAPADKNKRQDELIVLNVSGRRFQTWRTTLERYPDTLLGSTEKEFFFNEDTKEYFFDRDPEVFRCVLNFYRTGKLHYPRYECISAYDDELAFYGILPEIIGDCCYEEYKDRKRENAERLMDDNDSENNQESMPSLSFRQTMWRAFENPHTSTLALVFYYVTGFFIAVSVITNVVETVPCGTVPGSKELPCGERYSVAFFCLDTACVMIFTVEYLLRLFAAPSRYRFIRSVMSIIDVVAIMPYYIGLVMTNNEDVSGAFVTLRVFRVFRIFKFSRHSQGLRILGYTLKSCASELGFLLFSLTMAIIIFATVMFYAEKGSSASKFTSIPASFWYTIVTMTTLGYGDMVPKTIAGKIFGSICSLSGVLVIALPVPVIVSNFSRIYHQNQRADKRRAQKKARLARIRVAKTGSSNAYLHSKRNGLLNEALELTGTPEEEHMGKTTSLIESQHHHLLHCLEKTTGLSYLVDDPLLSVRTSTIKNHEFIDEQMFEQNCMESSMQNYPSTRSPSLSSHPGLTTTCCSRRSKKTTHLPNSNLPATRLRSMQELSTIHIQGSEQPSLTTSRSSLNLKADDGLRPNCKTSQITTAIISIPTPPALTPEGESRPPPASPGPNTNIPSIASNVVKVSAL
# Description: A C. elegans based high-throughput screen for Kv4.3 modulators has been used to establish an in vivo SAR (structure-activity relationships: the effect of chemical structure on biological activity) on Kv4.3 for the compounds according to the present invention.
# This assay has employed a stable transgenic C. elegans strain that functionally expressed human Kv4.3 in the pharynx and a visible selection GFP maker in body-wall muscle.
# The pharynx is the feeding organ of C. elegans and contracts rhythmically 3-4 times per second. The pharynx contraction is controlled by the nervous system via action potentials similar to the human myocyte and can thus be used to study human ion channel physiology in vivo in C. elegans.
# Introducing the human Kv4.3 channel into the C. elegans pharynx influences the C. elegans action potential in a characteristic fashion. The additional number of potassium channels increases potassium ion efflux, enhances re-polarization and thereby shortens the action potential duration. […] The shortened action potentials of the C. elegans pharynx resulting from expression of human Kv4.3, changes the pharynx contraction-relaxation cycle and consequently reduces the pumping/feeding in these transgenic animals. This change of pumping is an end-point amenable to high-throughput screening technology. The pumping end-point can be technically translated into a high-throughput read-out by the use of a pro-fluorescent dye. The pro-fluorescent dye is taken up by C. elegans depending on its pumping activity and converted into a fluorescent dye by enzymes located in its intestines. After a defined incubation period, the change of fluorescence intensity in the intestine can be measured with a plate reader.
# The screening of the compounds according to the present invention has been performed in the C. elegans based high-throughput screen for Kv4.3 modulators described above. The method for testing the activity on human Kv4.3 of the compounds according to the invention with C. elegans strains expressing human Kv4.3 for their activity is the same as the method described in WO 03/097682. The method for testing the compounds on wild-type C. elegans strains not expressing human Kv4.3 is the same as the method described in WO 00/63427. Briefly, UG1755 animals have been grown in large numbers and staged young adults (no or only few eggs inside the uterus) have been harvested on the day of screening. Approximately 125 animals in 80 μl buffer have been dispensed per well of a “U shaped 96-well compound plate The compound plate contained already compound material at a final concentration of 30 μM in 0.3% DMSO. After one hour incubation 10 μl of the fluorescent label Calcein AM (CAM) have been added to achieve a final concentration of 5 μM CAM and 0.8% DMSO. After another four hours of incubation at 20° C., the drinking of C. elegans animals (or the “reaction 8 measured by the uptake of CAM) has been stopped by adding 10 μl of a 60 μM ivermectin solution. The fluorescence intensity (counts per second) has been measured 40 minutes after adding ivermectin with the Wallac plate reader at a wavelength of 535 nm (after excitation at 485 nm).
# The active compounds have been identified and confirmed by dose-response analysis. An EC50 has been calculated and the results are listed under Table 3. Dose-response curves have been obtained at concentrations of 30 μM. EC50 has been calculated using XLfit 2.09 software package.
# [1] = 2 μM, fraction, cell also prints %
# T1 sequence (P22460 whole entry): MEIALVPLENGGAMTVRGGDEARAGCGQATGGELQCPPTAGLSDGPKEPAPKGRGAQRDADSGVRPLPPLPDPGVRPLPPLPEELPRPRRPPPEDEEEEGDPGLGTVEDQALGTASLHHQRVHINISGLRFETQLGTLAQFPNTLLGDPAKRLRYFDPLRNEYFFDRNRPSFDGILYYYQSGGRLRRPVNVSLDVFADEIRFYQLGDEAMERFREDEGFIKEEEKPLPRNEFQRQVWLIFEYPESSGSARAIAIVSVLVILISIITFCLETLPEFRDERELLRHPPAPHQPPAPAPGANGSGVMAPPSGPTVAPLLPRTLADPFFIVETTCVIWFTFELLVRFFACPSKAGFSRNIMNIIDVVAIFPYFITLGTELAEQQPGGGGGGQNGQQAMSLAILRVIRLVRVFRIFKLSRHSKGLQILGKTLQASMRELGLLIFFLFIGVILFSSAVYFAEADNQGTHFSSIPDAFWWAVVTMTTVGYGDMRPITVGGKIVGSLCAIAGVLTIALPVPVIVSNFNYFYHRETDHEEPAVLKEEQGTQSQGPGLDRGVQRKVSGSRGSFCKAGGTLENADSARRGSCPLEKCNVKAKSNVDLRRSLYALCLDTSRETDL
SMILES,Ratio N2/Kv4.3 (human Kv4.3),EC50 (human Kv4.3),Relative remaining current (mean after 8-10 min) (Kv1.5 potassium channel; 1 μM),other results
"COc1ccccc1Nc1nc(C)c(C(=O)N[C@H]2CCC[C@@H]2OCc2ccccc2)s1 [Compound 68, 2-(2-methoxy-phenylamino)-4-methyl-thiazole-5-carboxylic acid (1S,2S)-2-(benzyloxycyclopent-1-yl) amide]",–,–,–,Relative remaining current (mean after 8-10 min) (Kv1.5 potassium channel; [1]): 0.51 (51%); Relative remaining current (mean after 5 min) (Kv1.5 potassium channel; [1]): 0.66 (66%)
"Cc1nc(Nc2ccc(Cl)cc2)sc1C(=O)N[C@@H]1CCC[C@H]1OCc1ccccc1 [Compound 30, 2-(4-chloro-phenylamino)-4-methyl-thiazole-5-carboxylic acid (1R,2R)-2-(benzyloxycyclopent-1-yl) amide]",>6.4,9 µM,–,–
"Cc1nc(Nc2ccc(Br)cc2)sc1C(=O)N[C@H](C)c1ccc2ccccc2c1 [Compound 19, 2-(4-bromo-phenylamino)-4-methyl-thiazole-5-carboxylic acid (R)-1-(naphthalen-2-yl)ethyl amide]",4.7,7 µM,–,–
"Cc1nc(Nc2ccc3occc3c2)sc1C(=O)N[C@H]1CCC[C@@H]1OCc1ccccc1 [Compound 126, 2-(benzofuran-5-ylamino)-4-methyl-thiazole-5-carboxylic acid ((1S,2S)-2-benzyloxycyclopent-1-yl) amide]",–,–,86%,–
"Cc1nc(Nc2ccc(F)cc2)sc1C(=O)N[C@H](C)c1ccc2ccccc2c1 [Compound 16, 2-(4-fluoro-phenylamino)-4-methyl-thiazole-5-carboxylic acid (R)-1-(naphthalen-2-yl)ethyl amide]",>1.8,32.1 µM,–,–
"Cc1nc(Nc2ccc(Br)cc2)sc1C(=O)N[C@@H](C)c1ccc2ccccc2c1 [Compound 18, 2-(4-bromo-phenylamino)-4-methyl-thiazole-5-carboxylic acid (S)-1-(naphthalen-2-yl)ethyl amide]",2.4,13.5 µM,–,–

# More lines, main results first:
Ratio N2/Kv4.3 (human Kv4.3),EC50 (human Kv4.3),Relative remaining current (mean after 8-10 min) (Kv1.5 potassium channel; 1 μM),SMILES,other results
–,–,79%,"Cc1nc(Nc2cccc3cccnc23)sc1C(=O)N[C@H]1CCC[C@@H]1OCc1ccccc1 [Compound 94, 4-methyl-2-(quinolin-8-ylamino)-thiazole-5-carboxylic acid ((1S,2S)-2-benzyloxycyclopent-1-yl) amide]",–
–,–,44%,"Cc1nc(Sc2ccccc2)sc1C(=O)N[C@H]1CCC[C@@H]1OCc1ccccc1 [Compound 81, 4-methyl-2-phenylsulfanyl-thiazole-5-carboxylic acid ((1S,2S)-2-benzyloxycyclopent-1-yl) amide]",–
–,–,77%,"COc1ccccc1Nc1ccc(C(=O)N[C@H]2CCC[C@@H]2OCc2ccccc2)s1 [Compound 75, 2-(2-methoxy-phenylamino)-thiophene-5-carboxylic acid ((1S,2S)-2-benzyloxycyclopent-1-yl) amide]",–
